Assay [1] deals with Mcl-1/Bim (Homo sapiens, UniProt Q07820). Put plainly: Mcl-1/Bim ELISA (GST-Mcl-1 binding to biotinylated Bim BH3 peptide). The following applies: for selectivity profile Mcl-1 vs Bcl-xL in words: from Mcl-1/Bim and Bcl-xL/Bim ELISA; for fold loss of potency against Mcl-1/Bim: 1-15 and 1-13 vs 1-10, 1-14 vs 1-11, 1-16 vs 1-15, 1-12 vs 1-9, 1-22, 1-21, 1-20 vs 1-23, 1-37 and N-Me methoxy analogue vs (±)-1; for selectivity for Mcl-1 over Bcl-xL (Mcl-1/Bim over Bcl-xL/Bim): ratio of ELISA IC50 values. The protocol:
(§1) ELISAs were performed using a modified version of a previously described procedure (Doi K et al. J. Biol. Chem. 2012, 287, 10224-10235). Briefly, 40 nM of biotinylated Bim BH3 peptide (Biomatik) in SuperBlock blocking buffer (Pierce) was incubated in high-binding capacity streptavidin-coated plates (Pierce) for 2 h. Compounds were diluted in 120 μl of PBS containing 10 nM of GST-Mcl-1 or GST-Bcl-xL in 1.5 mL tubes for 15 min. Wells were washed with wash buffer (PBS containing 0.05% Tween-20) and then 100 μL of the compound/GST-protein mixture was transferred to the wells. The plates were incubated for 2 h, and then the wells were washed with wash buffer. HRP-conjugated anti-GST antibody (Bethyl Laboratories) was diluted 1:2000 in SuperBlock and 100 μL was transferred to each well. The plate was incubated for 1 h, and then the wells were washed with wash buffer followed by PBS. 100 μL of SureBlue TMB Microwell Peroxidase Substrate (VWR) was added to each well and plates were developed for 5-10 min. 100 μL of 1 N HCl was added to each well to stop the reaction and absorbance was read at 450 nm using a μQuant plate reader (Bio-Tek).
(§2) ELISAs were performed using a similar procedure as previously described (Doi K, et al. J. Biol. Chem. 2012, 287, 10224-10235). Briefly, 40 nM of biotinylated Bim BH3 peptide (Biomatik) in SuperBlock blocking buffer (Pierce) was incubated in high-binding capacity streptavidin-coated plates (Pierce) for 2 h. Compounds were diluted in 120 μl of PBS containing 10 nM of GST-Mcl-1 or GST-Bcl-xL in 1.5 mL tubes for 15 min. Wells were washed with wash buffer (PBS containing 0.05% Tween-20) and then 100 μL of the compound/GST-protein mixture was transferred to the wells. The plates were incubated for 2 h, and then wells were washed with wash buffer. HRP-conjugated anti-GST antibody (Bethyl Laboratories) was diluted 1:2000 in SuperBlock and 100 μL was transferred to each well. The plate was incubated for 1 h, and then wells were washed with wash buffer followed by PBS. 100 μL of SureBlue TMB Microwell Peroxidase Substrate (VWR) was added to each well and plates were developed for 5-10 min. 100 μL of 1 N HCl was added to each well to stop the reaction and absorbance was read at 450 nm using μQuant plate reader (Bio-Tek).

The target of assay [2] is Bcl-xL/Bim (Homo sapiens, UniProt Q07817). Put plainly: Bcl-xL/Bim ELISA (GST-Bcl-xL binding to biotinylated Bim BH3 peptide). The protocol: as §1, §2
Bcl-xL/Bim, sequence (Q07817 whole entry): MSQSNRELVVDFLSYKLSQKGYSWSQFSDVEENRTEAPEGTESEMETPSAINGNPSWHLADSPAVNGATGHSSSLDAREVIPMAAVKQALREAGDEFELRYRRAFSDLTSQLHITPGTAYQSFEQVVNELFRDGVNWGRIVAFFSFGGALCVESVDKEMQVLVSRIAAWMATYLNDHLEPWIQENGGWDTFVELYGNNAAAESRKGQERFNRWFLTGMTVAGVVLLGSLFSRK
[3] abbreviates: Table 2-B, n ≥ 3, read-out: Mcl-1/Bim IC50 (average ± SEM).
The mark [4] stands for this setting: Table 3-A structure I, Mcl-1 at 10 nM, n ≥ 3, read-out: Mcl-1-Bim IC50 (average ± SEM).
[5] abbreviates: Table 2-B, n ≥ 3 unless specified, read-out: Bcl-xL/Bim IC50 (average ± SEM).
Where [6] appears, read: Table 3-A structure I, Bcl-xL at 10 nM, n ≥ 3, read-out: Bcl-xL-Bim IC50 (average ± SEM).
[7] abbreviates: read-out: IC50 to inhibit the binding of Mcl-1 to Bim.
The mark [8] stands for this setting: read-out: IC50 to inhibit Bcl-xL/Bim binding.
[9] abbreviates: Table 2-A, n ≥ 3, read-out: Mcl-1/Bim IC50 (average ± SEM).
The mark [10] stands for this setting: Table 3-B structure II, n ≥ 3, read-out: Mcl-1-Bim IC50 (average ± SEM).
[11] abbreviates: Table 2-A, n ≥ 3, read-out: Bcl-xL/Bim IC50 (average ± SEM).
Setting [12] is: Table 3-B structure II, n ≥ 3, read-out: Bcl-xL-Bim IC50 (average ± SEM).

Structures are written as SMILES. Entries after “also recorded” stand apart in the source; their conditions may differ. Read-outs that look alike come from different tables or passages of the source.

Mcl-1/Bim, sequence (Q07820 whole entry): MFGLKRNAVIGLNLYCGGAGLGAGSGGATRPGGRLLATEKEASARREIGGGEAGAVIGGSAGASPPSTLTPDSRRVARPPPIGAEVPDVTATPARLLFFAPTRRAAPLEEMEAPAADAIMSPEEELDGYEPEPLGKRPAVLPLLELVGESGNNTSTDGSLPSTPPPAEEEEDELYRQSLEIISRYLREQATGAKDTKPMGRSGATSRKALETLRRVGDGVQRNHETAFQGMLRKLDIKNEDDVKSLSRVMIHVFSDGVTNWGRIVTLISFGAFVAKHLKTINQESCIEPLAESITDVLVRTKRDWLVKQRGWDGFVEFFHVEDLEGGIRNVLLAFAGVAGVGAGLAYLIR

For `O=C(c1ccc(C(F)(F)F)cc1O)c1[nH]c(Cl)c(Cl)c1-n1c(C(=O)c2ccc(C(F)(F)F)cc2O)cc(Cl)c1Cl` [Compound 1-1], the “selectivity profile Mcl-1 vs Bcl-xL in words” value in assay [1] is “dual Mcl-1 and Bcl-XL antagonists”.

For the compound `Cc1cc(O)c(C(=O)c2[nH]c(Cl)c(Cl)c2-n2c(C(=O)c3cc(Cl)c(C)cc3O)cc(Cl)c2Cl)cc1Cl` [Compound 1-2, (4,4′,5,5′-Tetrachloro-1′H-1,3′-bipyrrole-2,2′-diyl)bis((5-chloro-2-hydroxy-4-methylphenyl)methanone)], the IC50 in assay [1] (setting [3]) came to 2.6 ± 0.6 µM; in assay [1] (setting [4]), 2.6 ± 0.6 µM; in assay [2] (setting [5]) it was 2.5 ± 0.4 µM; in assay [2] (setting [6]), 2.5 ± 0.4 µM. Also, in assay [1], the “selectivity profile Mcl-1 vs Bcl-xL in words” value was “dual Mcl-1 and Bcl-XL antagonists”.

On to `O=C(c1ccc(OS(=O)(=O)C(F)(F)F)cc1O)c1[nH]c(Cl)c(Cl)c1-n1c(C(=O)c2ccc(OS(=O)(=O)C(F)(F)F)cc2O)cc(Cl)c1Cl` [Compound 1-6, (4,4′,5,5′-tetrachloro-1′H-1,3′-bipyrrole-2,2′-diyl)bis(((2-hydroxy-4-hydroxytrifluoromethanesulfonate)-phenyl)methanone)], for which the IC50 in assay [1] (setting [3]) was determined as 1 ± 0.3 µM; in assay [1] (setting [4]), 1 ± 0.3 µM; in assay [1] (setting [7]) it was 1 µM; in assay [2] (setting [5]) it was 2.5 ± 0.7 µM; in assay [2] (setting [6]), 2.1 ± 0.7 µM.

In the case of `O=C(c1ccc(O)cc1O)c1[nH]c(Cl)c(Cl)c1-n1c(C(=O)c2ccc(O)cc2O)cc(Cl)c1Cl` [Compound 1-7], in assay [1], the “activity against Mcl-1/Bim in words” value was “lost potency”. The IC50 in assay [2] (setting [5]) and in assay [2] (setting [6]) was over 50 µM each time.

As to `O=C(c1cc(Cl)c(O)cc1O)c1[nH]c(Cl)c(Cl)c1-n1c(C(=O)c2cc(Cl)c(O)cc2O)cc(Cl)c1Cl` [Compound 1-8], the IC50 in assay [2] (setting [5]) and in assay [2] (setting [6]) was over 50 µM in each case.

Regarding `CCOC(=O)CSc1ccc(C(=O)c2[nH]c(Cl)c(Cl)c2-n2c(C(=O)c3ccc(SCC(=O)OCC)cc3O)cc(Cl)c2Cl)c(O)c1` [Compound 1-9], the “fold improvement of potency against Mcl-1/Bim” value in assay [1] (1-9 vs 1-15) was determined as 3.4 fold. The IC50 in assay [1] (setting [4]) is 1.8 ± 0.3 µM; in assay [2] (setting [6]), 1.2 ± 0.2 µM. In assay [2] (1-9 vs 1-15), the “fold enhancement of potency against Bcl-xL/Bim” value was “over 83 fold”.

Take `O=C(c1ccc(SCc2ccccc2)cc1O)c1[nH]c(Cl)c(Cl)c1-n1c(C(=O)c2ccc(SCc3ccccc3)cc2O)cc(Cl)c1Cl` [Compound 1-10, (4,4′,5,5′-Tetrachloro-1′H-1,3′-bipyrrole-2,2′-diyl)bis(((2-hydroxy-4-benzylthio)phenyl)methanone)]: the IC50 worked out at 0.7 ± 0.2 µM in assay [1] (setting [4]) and 0.6 µM in assay [2] (setting [8]). The “selectivity profile Mcl-1 vs Bcl-xL in words” value in assay [1] was “most potent dual Mcl-1 and Bcl-xL antagonists”.

Consider `COc1ccc(CSc2ccc(C(=O)c3[nH]c(Cl)c(Cl)c3-n3c(C(=O)c4ccc(SCc5ccc(OC)cc5)cc4O)cc(Cl)c3Cl)c(O)c2)cc1` [Compound 1-11], for which the IC50 is 0.7 ± 0.1 µM in assay [1] (setting [3]) and 0.6 ± 0.1 µM in assay [2] (setting [6]).

In the case of `CCOC(=O)CS(=O)(=O)c1ccc(C(=O)c2[nH]c(Cl)c(Cl)c2-n2c(C(=O)c3ccc(S(=O)(=O)CC(=O)OCC)cc3O)cc(Cl)c2Cl)c(O)c1` [Compound 1-12], in assay [1], the “fold loss of potency against Mcl-1/Bim” value is 21 fold. The IC50 in assay [1] (setting [3]) is 37.3 ± 3.1 µM; in assay [2] (setting [5]), over 50 µM.

With `O=C(c1ccc(S(=O)(=O)Cc2ccccc2)cc1O)c1[nH]c(Cl)c(Cl)c1-n1c(C(=O)c2ccc(S(=O)(=O)Cc3ccccc3)cc2O)cc(Cl)c1Cl` [Compound 1-13, (4,4′,5,5′-Tetrachloro-1′H-1,3′-bipyrrole-2,2′-diyl)bis(((2-hydroxy-4-benzylsulfonyl)phenyl)methanone)], the “fold loss of potency against Mcl-1/Bim” value in assay [1] is 16 fold. The IC50 in assay [1] (setting [3]) was found to be 11.2 ± 4 µM; in assay [1] (setting [4]), 7.3 ± 1.4 µM; in assay [2] (setting [6]), 69.3 ± 5.8 µM.

In the case of `COc1ccc(CS(=O)(=O)c2ccc(C(=O)c3[nH]c(Cl)c(Cl)c3-n3c(C(=O)c4ccc(S(=O)(=O)Cc5ccc(OC)cc5)cc4O)cc(Cl)c3Cl)c(O)c2)cc1` [Compound 1-14], in assay [1], the “fold loss of potency against Mcl-1/Bim” value amounted to 25 fold. The IC50 in assay [1] (setting [3]) came to 17.4 ± 3.1 µM.

On to `O=C(O)CSc1ccc(C(=O)c2[nH]c(Cl)c(Cl)c2-n2c(C(=O)c3ccc(SCC(=O)O)cc3O)cc(Cl)c2Cl)c(O)c1` [Compound 1-15], for which the “fold loss of potency against Mcl-1/Bim” value in assay [1] stood at 8.7 fold. Besides, the IC50 was 6.1 ± 1.3 µM in assay [1] (setting [3]); 6.1 ± 1.3 µM in assay [1] (setting [4]); 6.1 µM in assay [1] (read-out: IC50 to disrupt Mcl-1/Bim binding); over 100 µM in assay [2] (setting [5]); over 100 µM in assay [2] (setting [6]); over 100 µM in assay [2] (setting [8]). Besides, in assay [1], the “selectivity profile Mcl-1 vs Bcl-xL in words” value was “much more selective for Mcl-1 over Bcl-xL”. Also, in assay [1], the “selectivity for Mcl-1 over Bcl-xL (Mcl-1/Bim over Bcl-xL/Bim)” value (shortened to “selectivity for Mcl-1 over Bcl-xL”) is given as “over 16 fold”.

With `O=C(O)CS(=O)(=O)c1ccc(C(=O)c2[nH]c(Cl)c(Cl)c2-n2c(C(=O)c3ccc(S(=O)(=O)CC(=O)O)cc3O)cc(Cl)c2Cl)c(O)c1` [Compound 1-16], in assay [1], the “activity against Mcl-1/Bim in words” value is on record as “lost potency” and the “fold loss of potency against Mcl-1/Bim” value was 10 fold. Further, in assay [1] (setting [4]), the IC50 stood at 63 ± 5.4 µM.

As to `CCOC(=O)Cn1cc(-c2cc(O)c(C(=O)c3[nH]c(Cl)c(Cl)c3-n3c(C(=O)c4cc(Cl)c(-c5cn(CC(=O)OCC)nn5)cc4O)cc(Cl)c3Cl)cc2Cl)nn1` [Compound 1-17, Diethyl 2,2′-(4,4′-((4,4′,5,5′-tetrachloro-1′H-1,3′-bipyrrole-2,2′-dicarbonyl)bis(2-chloro-5-hydroxy-4,1-phenylene))bis(1H-1,2,3-triazole-4,1-diyl))diacetate], the IC50 is 7.8 ± 1.5 µM in assay [1] (setting [9]); 7.8 ± 1.5 µM in assay [1] (setting [10]); 7.8 µM in assay [1] (setting [7]); over 100 µM in assay [2] (setting [11]); over 100 µM in assay [2] (setting [12]). Besides, the “selectivity for Mcl-1 over Bcl-xL” value in assay [1] is given as 12.9 fold. In addition, the “activity against Bcl-xL/Bim in words” value in assay [2] is on record as “not active”.

Turning to `CC(C)(C)OC(=O)Cn1cc(-c2cc(O)c(C(=O)c3[nH]c(Cl)c(Cl)c3-n3c(C(=O)c4cc(Cl)c(-c5cn(CC(=O)OC(C)(C)C)nn5)cc4O)cc(Cl)c3Cl)cc2Cl)nn1` [Compound 1-18, Di-tert-butyl 2,2′-(4,4′-((4,4′,5,5′-tetrachloro-1′H-1,3′-bipyrrole-2,2′-dicarbonyl)bis(2-chloro-5-hydroxy-4,1-phenylene))bis(1H-1,2,3-triazole-4,1-diyl))diacetate], in assay [1], the “selectivity for Mcl-1 over Bcl-xL” value is given as 8.3 fold.

As for `CCOC(=O)Cn1cc(-c2ccc(C(=O)c3[nH]c(Cl)c(Cl)c3-n3c(C(=O)c4ccc(-c5cn(CC(=O)OCC)nn5)cc4O)cc(Cl)c3Cl)c(O)c2)nn1` [Compound 1-24, Diethyl 2,2′-(4,4′-((4,4′,5,5′-tetrachloro-1′H-1,3′-bipyrrole-2,2′-dicarbonyl)bis(3-hydroxy-4,1-phenylene))bis(1H-1,2,3-triazole-4,1-diyl))diacetate], the IC50 in assay [1] (setting [9]) was 18.4 ± 0.3 µM; in assay [1] (setting [10]), 18.4 ± 0.3 µM; in assay [1] (setting [7]) it was 18.4 µM; in assay [2] (setting [11]), over 100 µM; in assay [2] (setting [12]), over 100 µM. The “selectivity for Mcl-1 over Bcl-xL” value in assay [1] worked out at 5.4 fold. For the same compound, the “activity against Bcl-xL/Bim in words” value in assay [2] is “not tolerated; also recorded: not active”.

As for `CC(C)(C)OC(=O)Cn1cc(-c2ccc(C(=O)c3[nH]c(Cl)c(Cl)c3-n3c(C(=O)c4ccc(-c5cn(CC(=O)OC(C)(C)C)nn5)cc4O)cc(Cl)c3Cl)c(O)c2)nn1` [Compound 1-25, Di-tert-butyl 2,2′-(4,4′-((4,4′,5,5′-tetrachloro-1′H-1,3′-bipyrrole-2,2′-dicarbonyl)bis(3-hydroxy-4,1-phenylene))bis(1H-1,2,3-triazole-4,1-diyl))diacetate], the “selectivity for Mcl-1 over Bcl-xL” value in assay [1] was 1.6 fold.

Values taken from patent US10358454B2, “Marinopyrrole derivatives and methods of making and using same” (H. LEE MOFFITT CANCER CENTER AND RESEARCH INSTITUTE, INC., priority 2014, dated 2019).
